Data: US20260297679A1, “ASSAYS FOR MONITORING INHIBITION OF RNA HELICASE DHX9” (ACCENT THERAPEUTICS, INC., priority 2023, published 2026)

Tests used:
DHX9 = test: qPCR (SYBR Green) of circular and linear RNAs in HCT116 cells after DHX9 inhibition; type: cell-based; conditions: 72 hours, FIG. 1
Procedure: This experiment was conducted to evaluate circular and linear formats of different mRNA in HCT116 cells after treatment with DHX9 inhibitors by Quantitative Polymerase Chain Reaction (qPCR).
HCT116 cells were obtained from ATCC (CCL-247) and were grown and assayed in McCoy's 5a growth media supplemented with 10% FBS.
The cells were plated at pre-determined cell densities in 384-well cell culture plates and incubated overnight in 37° C. at 5% CO2. In a separate plate, reference and test compounds were prepared in DMSO stock solution and serially diluted 3-fold for 10 points. Compound 7 (0.1% final DMSO concentration) was transferred to the cell plate in designated wells, and incubated 37° C. at 5% CO2 for 72 hours.
RNA was extracted from the cells using the SYBR Green Fast Advanced Cell-to-CT kit according to manufacturer's (Invitrogen) protocol, and cDNA was reverse transcribed using the High Capacity RNA-to-cDNA Kit according to the manufacturer's (Invitrogen) protocol. Using RT^2 SYBR Green ROX qPCR Mastermix (Invitrogen) and thermal cycler conditions for the QuantStudio Thermocycler, qPCR was carried out using the below custom primer sequences obtained at Integrated DNA Technologies (IDT):
Data analysis was performed by using the QuantStudio Thermocycler software to determine threshold Ct values. ΔCt for circRNA or linRNA is calculated by normalizing the target gene Ct to the GAPDH housekeeping gene Ct for each sample. The inhibition activity is calculated by the following formula, whereas: […]
ΔCts: Mean of Ct(target gene)−Mean of Ct(GAPDH) for each sample
ΔCtc: Mean of Ct(target gene)−Mean of Ct(GAPDH) for DMSO control.

human PBMCs = test: proliferation of human PBMCs (Cell-Titer Glo 2.0); type: cell-based; conditions: Compound 1 0.01 μM to 10 μM, 10 days; FIG. 8B
Procedure: Next, the proliferation of PMBCs was examined following treatment with DHX9 inhibitor using the following assay.
Human PBMCs were thawed from a frozen cryotube in a 37° C. water bath and transferred to a flask with medium X-Vivo 15 supplemented with 5% Fetal Bovine Serum (FBS), 1% PenStrep, and 1% Glutamax. Flasks were incubated at 37 C for 30 minutes. PBMCs were harvested from flask and counted. PBMCs were diluted in medium and added to 96 well plates at 100,000 PBMCs per well. A stimulus mixture containing IL-15 at 1 ng/well, IL-21 at 5 ng/well, and CD40L at 5 ng/well was added to each well. Test compounds were prepared in DMSO stock solution and serially diluted. Compound (0.1% final DMSO concentration) was added to each well. DMSO was used as a negative control (high control, HC) and staurosporine was used a positive control (low control, LC). Plates were incubated at 37 C for 0, 2, 4, 6, 8, 10 days. Every other day, medium was replenished with stimulus and diluted compounds.
At each CTG time point, plate was removed from incubator and Cell-Titer Glo 2.0 reagent was added to each well according to manufacturer's (Promega) protocol and detected on an Envision. The inhibition activity was calculated following the formula below:
% Inhibition=100×(ReadoutHC−ReadoutSample)/(ReadoutHC−ReadoutLC)
PBMCs were exposed to Compound 1 at concentrations ranging from 0.01 μM to 10 μM for 10 days. […]

SMILES | induction of AKR1A1 circRNA (Alu-mediated) (DHX9) | induction of BRIP1 circRNA (Alu-mediated) (DHX9) | induction of DKC1 circRNA (Alu-mediated) (DHX9) | induction of SETD3 circRNA (non-Alu-mediated) (DHX9) | proliferation of PBMCs (human PBMCs)
CS(=O)(=O)Nc1cccc(NC(=O)c2cc(Br)cs2)c1 [Compound 7, 4-bromo-N-(3-methanesulfonamidophenyl)thiophene-2-carboxamide] | induced | induced | induced | no induction of SETD3 cirRNA was observed | –
CN[C@@H]1C[C@H]2O[C@@](C)([C@@H]1OC)n1c3ccccc3c3c4c(c5c6ccccc6n2c5c31)C(=O)NC4 [staustoporine, staurosporine, reference compound] | – | – | – | – | inhibited proliferation of PBMCs
